{"source": "ChEMBL document CHEMBL1201862", "about": "“PubChem BioAssay data set” (2004)", "note": "The source made the active and inactive calls.", "data": [{"target": "T1, Replicative DNA helicase DnaB (Mycobacterium tuberculosis, UniProt P9WMR3)", "T1 sequence (P9WMR3 whole entry)": "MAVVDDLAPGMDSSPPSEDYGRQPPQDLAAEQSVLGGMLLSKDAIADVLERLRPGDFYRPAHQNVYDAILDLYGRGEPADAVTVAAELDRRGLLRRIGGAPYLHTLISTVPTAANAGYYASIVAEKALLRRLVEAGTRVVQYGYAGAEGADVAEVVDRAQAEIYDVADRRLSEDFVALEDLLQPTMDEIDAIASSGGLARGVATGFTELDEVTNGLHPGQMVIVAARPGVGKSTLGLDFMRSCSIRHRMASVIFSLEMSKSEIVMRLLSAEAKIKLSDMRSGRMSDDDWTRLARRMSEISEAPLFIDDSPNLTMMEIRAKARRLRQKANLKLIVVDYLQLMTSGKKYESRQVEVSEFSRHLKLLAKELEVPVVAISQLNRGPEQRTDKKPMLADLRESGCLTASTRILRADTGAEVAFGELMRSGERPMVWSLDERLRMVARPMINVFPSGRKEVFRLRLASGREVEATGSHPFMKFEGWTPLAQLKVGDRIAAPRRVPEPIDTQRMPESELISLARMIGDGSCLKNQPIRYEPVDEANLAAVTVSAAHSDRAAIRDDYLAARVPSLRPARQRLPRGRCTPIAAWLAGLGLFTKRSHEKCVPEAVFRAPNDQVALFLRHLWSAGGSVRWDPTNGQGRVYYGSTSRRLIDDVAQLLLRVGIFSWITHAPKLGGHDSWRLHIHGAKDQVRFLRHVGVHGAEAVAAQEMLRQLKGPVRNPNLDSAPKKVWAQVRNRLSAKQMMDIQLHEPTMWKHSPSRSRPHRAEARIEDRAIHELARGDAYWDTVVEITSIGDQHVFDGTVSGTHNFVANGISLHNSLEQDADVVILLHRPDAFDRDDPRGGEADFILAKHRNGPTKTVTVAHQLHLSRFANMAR", "assay": "DnaB intein splicing inhibitors, dose response, biochemical, cell-free fluorescence (AID 449749)", "format": "functional", "values": [{"molecule": "CN1CCN2c3ccc(N)cc3CC3(C(=O)NC(=O)NC3=O)C2C1", "note": "(stereo not drawn)", "AC50": "147 µM (active)"}, {"molecule": "Cc1ccc2c(c1)c1nnc(SCC(=O)Nc3ccc(N(C)C)cc3)nc1n2CC(=O)O", "AC50": "92.5 µM (active)"}, {"molecule": "COCC(C)NC(=O)CCS(=O)(=O)c1nc(-c2ccc(OC)cc2)cc(C(F)(F)F)n1", "note": "(stereo not drawn)", "AC50": "12.5 µM (active)"}, {"molecule": "Cn1cnc([N+](=O)[O-])c1Oc1ccc2ccccc2c1", "AC50": "31.9 µM (active)"}, {"molecule": "COc1ccc(-c2[nH]nc3c2C(c2ccccc2OC(=O)N2CCOCC2)C(C#N)=C(N)O3)cc1", "note": "(stereo not drawn)", "AC50": "11.2 µM (active)"}, {"molecule": "COc1ccc(CC(=O)N/N=C(/C)CC(=O)N(C)c2ccccc2)cc1", "AC50": "29.3 µM (active)"}]}, {"target": "T2, Protein skinhead-1 (Caenorhabditis elegans, UniProt P34707)", "T2 sequence (P34707 whole entry)": "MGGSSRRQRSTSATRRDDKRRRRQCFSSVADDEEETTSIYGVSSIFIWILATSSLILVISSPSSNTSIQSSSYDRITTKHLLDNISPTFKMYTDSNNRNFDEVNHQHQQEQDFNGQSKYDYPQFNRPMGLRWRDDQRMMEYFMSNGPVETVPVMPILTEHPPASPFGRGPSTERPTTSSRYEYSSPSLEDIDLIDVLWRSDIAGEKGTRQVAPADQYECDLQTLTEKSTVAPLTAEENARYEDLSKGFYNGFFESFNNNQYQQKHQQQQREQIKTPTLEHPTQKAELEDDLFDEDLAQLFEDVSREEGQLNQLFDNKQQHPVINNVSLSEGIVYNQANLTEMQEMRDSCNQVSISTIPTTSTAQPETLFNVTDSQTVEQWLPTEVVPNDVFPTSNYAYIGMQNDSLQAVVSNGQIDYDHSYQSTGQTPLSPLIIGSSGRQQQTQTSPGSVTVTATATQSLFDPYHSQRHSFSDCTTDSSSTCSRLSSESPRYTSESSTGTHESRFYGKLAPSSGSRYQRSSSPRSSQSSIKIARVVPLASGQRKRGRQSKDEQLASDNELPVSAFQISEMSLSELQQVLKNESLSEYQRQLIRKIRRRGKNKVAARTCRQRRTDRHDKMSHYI", "format": "functional", "values": [{"molecule": "Brc1ccc(-c2nc(-c3ccccc3)no2)o1", "IC50": "14.1 µM (active)"}, {"molecule": "c1ccc(OCc2cc(-c3ccccc3)no2)cc1", "IC50": "68.7 µM (inactive)"}, {"molecule": "Cc1onc(-c2c(F)cccc2Cl)c1C(=O)Nc1nc2ccccc2[nH]1", "IC50": "> 100 µM (inactive)"}, {"molecule": "COc1cc2c(cc1OC)[C@@H](NC(=O)CCc1ccccc1)[C@H](OCc1ccccc1)C2", "IC50": "> 100 µM (inactive)"}, {"molecule": "C(/C=C/c1ccccn1)=C\\c1ccccc1", "IC50": "50.8 µM (inactive)"}, {"molecule": "COc1cccc(-n2cnnn2)c1", "IC50": "> 100 µM (inactive)"}, {"molecule": "CN(C)C(CNC(=O)c1cccc(S(=O)(=O)N2CCN(c3ccc(F)cc3)CC2)c1)c1ccccc1", "note": "(stereo not drawn)", "IC50": "63.4 µM (inactive)"}, {"molecule": "Cc1ccc(-c2nc3ccc(Br)cn3c2Cc2ccccc2C(F)(F)F)cc1", "IC50": "75.5 µM (inactive)"}, {"molecule": "COC(=O)C1C2CC3c4[nH]c5cc(OC)ccc5c4CCN3CC2CC(OC(=O)CC(C)=O)C1OC", "note": "(stereo not drawn)", "IC50": "> 100 µM (inactive)"}, {"molecule": "O=C(Nc1ccccc1Cl)c1cc(C2CCCN(C(=O)OCCF)C2)on1", "note": "(stereo not drawn)", "IC50": "> 100 µM (inactive)"}, {"molecule": "O=C1NC[C@H](Cc2ccccc2)N(C[C@@H]2CCCN2C[C@H](Cc2ccc(O)cc2)N2C[C@H](Cc3ccccc3)N(CC3CCCCCC3)C(=O)C2=O)C1=O", "IC50": "> 100 µM (inactive)"}]}, {"target": "T3, Protein RecA (Mycobacterium tuberculosis, UniProt P9WHJ3)", "T3 sequence (P9WHJ3 whole entry)": "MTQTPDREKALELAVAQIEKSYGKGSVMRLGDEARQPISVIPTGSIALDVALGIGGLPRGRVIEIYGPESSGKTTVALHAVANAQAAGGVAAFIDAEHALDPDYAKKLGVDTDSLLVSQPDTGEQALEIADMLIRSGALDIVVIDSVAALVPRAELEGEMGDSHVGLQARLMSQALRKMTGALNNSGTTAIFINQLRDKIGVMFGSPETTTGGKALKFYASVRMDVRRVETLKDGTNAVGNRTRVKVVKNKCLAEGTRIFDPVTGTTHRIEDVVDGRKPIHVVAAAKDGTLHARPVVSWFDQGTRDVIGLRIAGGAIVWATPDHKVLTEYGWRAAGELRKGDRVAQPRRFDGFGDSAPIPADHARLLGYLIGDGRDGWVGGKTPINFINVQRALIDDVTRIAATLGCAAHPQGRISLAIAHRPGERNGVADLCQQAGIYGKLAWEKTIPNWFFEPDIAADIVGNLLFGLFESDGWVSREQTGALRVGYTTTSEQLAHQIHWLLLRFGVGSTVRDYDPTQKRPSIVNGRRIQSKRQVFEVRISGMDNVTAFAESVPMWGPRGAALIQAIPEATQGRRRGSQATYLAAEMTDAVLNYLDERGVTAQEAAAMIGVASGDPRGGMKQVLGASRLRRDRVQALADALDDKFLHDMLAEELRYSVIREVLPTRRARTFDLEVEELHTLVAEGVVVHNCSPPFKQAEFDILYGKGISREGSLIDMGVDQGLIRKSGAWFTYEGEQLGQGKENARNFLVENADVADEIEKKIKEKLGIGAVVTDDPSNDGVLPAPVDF", "assay": "Fluorescence Cell-Free Homogeneous Dose Retest to Identify Inhibitors of RecA-Intein Splicing Activity. [Related pubchem assays (depositor defined):AID2097, AID2223, AID489010, AID492950]", "format": "functional", "values": [{"molecule": "CN1CCN2c3ccc(N)cc3CC3(C(=O)NC(=O)NC3=O)C2C1", "note": "(stereo not drawn)", "EC50": "39.5 µM (active)"}, {"molecule": "Cc1ccc2c(c1)c1nnc(SCC(=O)Nc3ccc(N(C)C)cc3)nc1n2CC(=O)O", "EC50": "0.483 µM (active)"}, {"molecule": "COCC(C)NC(=O)CCS(=O)(=O)c1nc(-c2ccc(OC)cc2)cc(C(F)(F)F)n1", "note": "(stereo not drawn)", "EC50": "6.72 µM (active)"}, {"molecule": "Cn1cnc([N+](=O)[O-])c1Oc1ccc2ccccc2c1", "EC50": "12.7 µM (active)"}, {"molecule": "COc1ccc(-c2[nH]nc3c2C(c2ccccc2OC(=O)N2CCOCC2)C(C#N)=C(N)O3)cc1", "note": "(stereo not drawn)", "EC50": "3.91 µM (active)"}, {"molecule": "COc1ccc(CC(=O)N/N=C(/C)CC(=O)N(C)c2ccccc2)cc1", "EC50": "9.23 µM (active)"}]}]}
